Laboratory results as given in patent US20240336574A1 (LATIGO BIOTHERAPEUTICS, INC., priority 2021, published 2024).
Read-outs that look alike come from different tables or passages of the source.

Target: T1, recombinant human NaV1.8 stably transfected HEK cells (Homo sapiens, UniProt Q9Y5Y9)
T1 construct: expressed in transfected cells; host or cells: HEK cells, stably transfected
Assay: Compound profiling on NaV1.8, human NaV1.8 cell line, SyncroPatch384PE automated patch clamp assay (Example 102, first set of compounds, Table 16)
Type: cell-based
Conditions: human NaV1.8 HEK cells, Table 16 (first set of compounds)
Description: Compound Profiling on NaV1.8—Human NaV1.8 Cell Line—SyncroPatch384PE Assay
Compounds were tested on recombinant human NaV1.8 stably transfected HEK cells using the SyncroPatch384PE system, an automated patch clamp device. Cells were cultured at 37° C./5% CO2 in DMEM medium supplemented with GlutaMAX I, NEAA 1%, FBS 10% and seeded in T175 flasks. Cells were cultured at 30° C. one day prior to recording sodium currents. On the day of the recordings, cells were detached with 0.05% Trypsin-EDTA, resuspended in serum free DMEM medium and placed into the SyncroPatch384PE 6° C. pre-cooled cell hotel and shaken at 200 rpm. Intracellular solution (IC) contained, in mM: 10, CsCl; 110, CsF; 20, EGTA; 10, HEPES. Extracellular solution (EC) contained, in mM: 140, NaCl; 4, KCl; 5, Glucose; 10, HEPES; 2, CaCl2; 1, MgCl2. Washing solution contained, in mM: 40, NMDG; 100, NaCl; 4, KCl; 10, Glucose; 10, HEPES; 5, CaCl2; 1, MgCl2.
Compounds were tested in triplicate in 0.1% DMSO and 0.030% Pluronic Acid. Compounds were diluted 1:3 in EC solution to create a 10-point concentration response curve, spanning a final concentration range from 20-0.001 μM in the assay plate. Each plate contained tetracaine and another tool compound as positive controls. Up to 8 compounds were tested on one plate. 250 μM tetracaine and 0.1% DMSO were used as high and low controls, respectively. Whole cell patch clamp recordings were conducted according to Nanion's standard procedure for SyncroPatch384PE®. Cells were held at a holding potential of −120 mV. A depolarization step to 10 mV for 30 ms was applied (P1 measurement), followed by a hyperpolarization step to −100 mV for 100 ms. An inactivation step at −40 mV for 10 sec was applied before stepping to −100 mV for 20 ms, followed by a step to 10 mV for 30 ms (P2 measurement) and then back to −100 mV for 30 ms. Sweep interval was 15 sec with a sampling rate of 10 kHz. Following establishment of the whole-cell configuration in EC, two washing steps with reference buffer were performed to stabilize the baseline. Compounds were then applied by the SynchroPatch into each well and the current was recorded for five minutes in EC, followed by application of tetracaine to achieve full block at the end of the experiment. The potency of the compounds was assessed on two read-outs, resting state block (P1 measurement) or inactivated state block (P2 measurement) to obtain IC50 values. Values were normalized to high (tetracaine) and low (DMSO) controls. The IC50 values are listed in Table 16 as follows: “A” represents an IC50 less than or equal to 20 nM, “B” represents an IC50 greater than 20 nM to less than or equal to 40 nM, “C” represents an IC50 greater than 40 nM to less than or equal to 200 nM, “D” represents an IC50 greater than 200 nM to less than or equal to 500 nM.

[1] = inactivated state block (P2 measurement), read-out: P2IC50
[2] = resting state block (P1 measurement), read-out: P1IC50

T1 sequence (Q9Y5Y9 whole entry): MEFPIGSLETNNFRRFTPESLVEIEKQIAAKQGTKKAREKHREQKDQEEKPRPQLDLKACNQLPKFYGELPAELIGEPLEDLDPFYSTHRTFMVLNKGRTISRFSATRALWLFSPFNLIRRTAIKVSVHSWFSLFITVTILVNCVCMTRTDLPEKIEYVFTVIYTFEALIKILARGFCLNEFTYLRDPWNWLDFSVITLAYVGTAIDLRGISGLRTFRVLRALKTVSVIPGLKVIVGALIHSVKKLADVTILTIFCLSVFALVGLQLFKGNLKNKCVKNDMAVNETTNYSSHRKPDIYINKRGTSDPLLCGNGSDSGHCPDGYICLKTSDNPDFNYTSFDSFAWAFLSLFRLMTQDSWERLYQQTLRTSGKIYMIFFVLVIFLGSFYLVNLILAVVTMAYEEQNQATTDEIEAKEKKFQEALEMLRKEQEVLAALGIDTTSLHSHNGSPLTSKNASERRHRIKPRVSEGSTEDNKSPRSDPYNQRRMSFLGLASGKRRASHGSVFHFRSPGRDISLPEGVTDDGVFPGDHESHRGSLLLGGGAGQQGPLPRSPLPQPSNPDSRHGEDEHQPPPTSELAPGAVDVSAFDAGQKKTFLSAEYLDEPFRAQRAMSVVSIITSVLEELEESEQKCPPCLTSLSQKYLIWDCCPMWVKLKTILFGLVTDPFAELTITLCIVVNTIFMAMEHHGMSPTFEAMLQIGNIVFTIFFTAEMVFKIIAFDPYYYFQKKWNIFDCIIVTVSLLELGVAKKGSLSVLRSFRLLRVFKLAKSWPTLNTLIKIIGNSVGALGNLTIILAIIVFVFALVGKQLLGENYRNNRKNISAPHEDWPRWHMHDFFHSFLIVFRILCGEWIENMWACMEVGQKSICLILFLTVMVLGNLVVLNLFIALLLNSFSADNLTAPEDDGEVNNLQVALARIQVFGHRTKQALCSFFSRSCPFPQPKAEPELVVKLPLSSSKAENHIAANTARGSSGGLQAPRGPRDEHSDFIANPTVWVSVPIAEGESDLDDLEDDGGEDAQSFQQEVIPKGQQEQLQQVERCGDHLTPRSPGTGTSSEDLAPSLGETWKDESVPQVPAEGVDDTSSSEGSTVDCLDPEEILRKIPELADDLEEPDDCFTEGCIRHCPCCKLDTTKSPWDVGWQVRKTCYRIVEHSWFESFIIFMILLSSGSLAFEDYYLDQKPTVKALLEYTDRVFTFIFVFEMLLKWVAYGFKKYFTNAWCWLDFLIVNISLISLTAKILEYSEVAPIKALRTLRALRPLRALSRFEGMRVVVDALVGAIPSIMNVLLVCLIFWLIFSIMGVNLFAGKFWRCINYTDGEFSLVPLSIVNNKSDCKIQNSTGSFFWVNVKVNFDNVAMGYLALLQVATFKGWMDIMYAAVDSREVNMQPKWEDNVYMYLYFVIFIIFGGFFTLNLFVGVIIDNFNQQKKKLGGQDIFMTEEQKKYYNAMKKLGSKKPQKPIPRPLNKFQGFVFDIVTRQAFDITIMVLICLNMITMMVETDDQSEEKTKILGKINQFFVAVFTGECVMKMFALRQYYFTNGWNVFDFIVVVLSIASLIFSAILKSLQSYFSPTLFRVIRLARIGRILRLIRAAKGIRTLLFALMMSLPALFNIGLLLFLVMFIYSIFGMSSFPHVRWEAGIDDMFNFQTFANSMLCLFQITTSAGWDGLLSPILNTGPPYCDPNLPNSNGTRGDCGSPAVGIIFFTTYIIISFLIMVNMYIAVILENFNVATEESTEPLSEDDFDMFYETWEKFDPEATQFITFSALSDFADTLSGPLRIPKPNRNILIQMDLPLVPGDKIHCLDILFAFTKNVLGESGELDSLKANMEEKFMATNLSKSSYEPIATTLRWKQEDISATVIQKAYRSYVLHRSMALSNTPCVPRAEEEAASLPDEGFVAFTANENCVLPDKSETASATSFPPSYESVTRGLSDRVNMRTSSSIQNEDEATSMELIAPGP

IC50 [1] [nM]	IC50 [2] [nM]	Compound
40 to 200	40 to 200	COc1cc(C#N)ccc1Oc1nnc(-c2ccc(C)cc2)c(C)c1C(=O)Nc1cccc([S@@](C)(=N)=O)c1 [Compound 1530, 3-(4-cyano-2-methoxyphenoxy)-N-{3-[(S)-imino(methyl)oxo-λ^6-sulfanyl]phenyl}-5-methyl-6-(4-methylphenyl)pyridazine-4-carboxamide]
200 to 500	200 to 500	NC(=O)c1ccc(NC(=O)c2cc(C(F)(F)F)cnc2OC2CC(C(F)(F)F)C2)cc1 (mixture of isomers) [Compound 1670]
≤ 20	≤ 20	COc1c(Oc2nnc(C(F)(F)F)c(C)c2C(=O)Nc2cccc(S(C)(=N)=O)c2)ccc(Cl)c1F (single isomer, unassigned) [Compound 1490, 3-(4-chloro-3-fluoro-2-methoxy-phenoxy)-5-methyl-N-[3-(methylsulfonimidoyl)phenyl]-6-(trifluoromethyl)pyridazine-4-carboxamide]
200 to 500	200 to 500	COc1c(Oc2nnc3c(c2C(=O)Nc2cccc(S(C)(=N)=O)c2)CCC3)ccc(F)c1F (centres unmarked) [Compound 1516, 3-(3,4-difluoro-2-methoxyphenoxy)-N-{3-[imino(methyl)oxo-λ^6-sulfanyl]phenyl}-5H,6H,7H-cyclopenta[c]pyridazine-4-carboxamide]
≤ 20	≤ 20	CC(=O)N=[S@](C)(=O)c1cccc(NC(=O)c2cc(C(F)(F)F)cnc2Oc2ccc(F)cc2C)c1 [Compound 1716, N-[3-(N-acetyl-S-methyl-sulfonimidoyl)phenyl]-2-(4-fluoro-2-methyl-phenoxy)-5-(trifluoromethyl)pyridine-3-carboxamide]
20 to 40	40 to 200	COc1cc(C#N)ccc1Oc1nnc(C(F)(F)F)c(C)c1C(=O)Nc1ccc[n+]([O-])c1 [Compound 1544, 3-(4-cyano-2-methoxy-phenoxy)-5-methyl-N-(1-oxidopyridin-1-ium-3-yl)-6-(trifluoromethyl)pyridazine-4-carboxamide]
200 to 500	200 to 500	COc1c(Oc2ncc(C(F)(F)F)cc2C(=O)NC23CC(C(N)=O)(C2)C3)ccc(F)c1F [Compound 1722, N-(3-carbamoyl-1-bicyclo[1.1.1]pentanyl)-2-(3,4-difluoro-2-methoxy-phenoxy)-5-(trifluoromethyl)pyridine-3-carboxamide]
200 to 500	200 to 500	Cc1cc(C(F)(F)F)c(C)cc1Oc1ncc(C(F)(F)F)cc1C(=O)Nc1cccc(S(C)(=O)=O)c1 [Compound 1616]
≤ 20	≤ 20	COc1cc(C#N)ccc1Oc1nnc(C(F)(F)F)c(C)c1C(=O)Nc1cccc(S(N)(=O)=O)c1 [Compound 1418]
200 to 500	200 to 500	CS(=O)(=O)c1cccc(NC(=O)c2cc(C(F)(F)F)cnc2OCC(F)F)c1 [Compound 1663]
200 to 500	200 to 500	CS(=O)(=O)c1cccc(NC(=O)c2cc(C(F)(F)F)cnc2Oc2cncc3ccccc23)c1 [Compound 1581]
200 to 500	200 to 500	CC#Cc1nnc(Oc2ccc(F)cc2C)c(C(=O)Nc2cccc(S(C)(=N)=O)c2)c1C (centres unmarked) [Compound 1434, 3-(4-Fluoro-2-methylphenoxy)-5-methyl-N-(3-(S-methylsulfonimidoyl)phenyl)-6-(prop-1-yn-1-yl)pyridazine-4-carboxamide]
40 to 200	40 to 200	COc1ccc(Oc2nnc(C(F)(F)F)c(C)c2C(=O)Nc2cccc(S(C)(=N)=O)c2)c(C)n1 (centres unmarked) [Compound 1507, N-{3-[imino(methyl)oxo-λ^6-sulfanyl]phenyl}-3-[(6-methoxy-2-methylpyridin-3-yl)oxy]-5-methyl-6-(trifluoromethyl)pyridazine-4-carboxamide]
≤ 20	≤ 20	Cc1c(C(F)(F)F)nnc(Oc2ccc(OC(C)C)c(F)c2F)c1C(=O)Nc1cccc(S(C)(=N)=O)c1 (single isomer, unassigned) [Compound 1502, 3-(2,3-difluoro-4-isopropoxyphenoxy)-5-methyl-N-(3-(S-methylsulfonimidoyl)phenyl)-6-(trifluoromethyl)pyridazine-4-carboxamide]
≤ 20	≤ 20	COc1c(Oc2ncc(C(F)(F)F)cc2C(=O)Nc2cccc(S(C)(=N)=O)c2)ccc(F)c1F (centres unmarked) [Compound 1630]
≤ 20	≤ 20	COc1c(Oc2nnc(C(F)(F)F)c(C)c2C(=O)Nc2ccc[n+]([O-])c2)ccc(F)c1F [Compound 1476, 3-(3,4-difluoro-2-methoxy-phenoxy)-5-methyl-N-(1-oxidopyridin-1-ium-3-yl)-6-(trifluoromethyl)pyridazine-4-carboxamide]
≤ 20	≤ 20	CN=S(C)(=O)c1cccc(NC(=O)c2cc(C(F)(F)F)cnc2Oc2ccc(F)cc2C)c1 (centres unmarked) [Compound 1717, N-[3-(N,S-dimethylsulfonimidoyl)phenyl]-2-(4-fluoro-2-methyl-phenoxy)-5-(trifluoromethyl)pyridine-3-carboxamide]
≤ 20	≤ 20	COc1cc(C#N)ccc1Oc1nc(C(F)(F)F)nc(C)c1C(=O)Nc1cccc(S(C)(=N)=O)c1 (centres unmarked) [Compound 1743, 4-(4-cyano-2-methoxy-phenoxy)-6-methyl-N-[3-(methylsulfonimidoyl)phenyl]-2-(trifluoromethyl)pyrimidine-5-carboxamide]
40 to 200	20 to 40	Cc1c(C(F)(F)F)nnc(Oc2ccc(C#N)cc2)c1C(=O)Nc1cccc(S(C)(=N)=O)c1 (centres unmarked) [Compound 21]
200 to 500	40 to 200	CS(=O)(=O)c1cccc(NC(=O)c2cc(C(F)(F)F)cnc2OCCC(F)(F)F)c1 [Compound 1604]
40 to 200	40 to 200	Cc1ccc(Oc2ncc(C(F)(F)F)cc2C(=O)Nc2cccc(C(N)=O)c2)c(OC(F)F)n1 [Compound 1691]
200 to 500	200 to 500	COc1cc(C#N)ccc1Oc1ncc(C2CCOCC2)cc1C(=O)Nc1cccc(S(C)(=N)=O)c1 (centres unmarked) [Compound 1727, 2-(4-cyano-2-methoxy-phenoxy)-N-[3-(methylsulfonimidoyl)phenyl]-5-tetrahydropyran-4-yl-pyridine-3-carboxamide]
≤ 20	≤ 20	COc1c(Oc2nnc(C(F)(F)F)c(C)c2C(=O)Nc2cccc(S(C)(=O)=O)c2)ccc(F)c1F [Compound 1425]
200 to 500	200 to 500	CC(C)(O)c1ccc(Oc2ncc(C(F)(F)F)cc2C(=O)Nc2cccc(S(C)(=O)=O)c2)c(F)c1 [Compound 1664]
≤ 20	≤ 20	COc1cc(C#N)ccc1Oc1ncc(C(F)(F)F)cc1C(=O)Nc1cccc(S(C)(=N)=O)c1 (centres unmarked) [Compound 1562, 2-(4-cyano-2-methoxyphenoxy)-N-{3-[imino(methyl)oxo-λ^6-sulfanyl]phenyl}-5-(trifluoromethyl)pyridine-3-carboxamide]
200 to 500	200 to 500	CC(C#N)Oc1cc(F)c(Oc2ncc(C(F)(F)F)cc2C(=O)Nc2cccc(C(N)=O)c2)cc1F (centres unmarked) [Compound 1687]
200 to 500	200 to 500	Cc1cc(F)ccc1Oc1nnc(C(F)(F)F)c(-c2ccccc2)c1C(=O)Nc1cccc([S@@](C)(=N)=O)c1 [Compound 1520, (S)-3-(4-fluoro-2-methylphenoxy)-N-(3-(S-methylsulfonimidoyl)phenyl)-5-phenyl-6-(trifluoromethyl)pyridazine-4-carboxamide]
20 to 40	20 to 40	COc1cc(C#N)ccc1Oc1nnc(-c2ccc(C(F)F)cc2)c(C)c1C(=O)Nc1cccc([S@](C)(=N)=O)c1 [Compound 1534, 3-(4-cyano-2-methoxyphenoxy)-6-[4-(difluoromethyl)phenyl]-N-{3-[(R)-imino(methyl)oxo-λ^6-sulfanyl]phenyl}-5-methylpyridazine-4-carboxamide]
